According to patent US20100003679A1, “ASSESSMENT OF CELLULAR COMPOSITION AND FRACTIONAL VIABILITY AND USES THEREOF” (University of Miami, priority 2006, published 2010):

Assays:
Assay type in all cases: cell-based
[1] = tested on: β-cells (NG bright) of human islets; assay: Simultaneous β-cell/PDC viability by FACS after noxious stimuli: β-cell subset; conditions: human islet cells, 24 h; SNAP 0.5 mM; H2O2 200 μM; IL-1β 50 U/ml + TNF-α 1,000 U/ml + IFN-γ 1,000 U/ml; vs absence of stimulus
Procedure: (§1) Assessment of PDC-specific viability: Single cell suspensions were incubated for 30 min at 37° C. in phosphate buffered saline (PBS) without Ca^2+ and Mg^2+ with Newport Green PDX acetoxymethylether (NG; […]) and tetramethylrhodamineethylester (TMRE; 100 ng/ml; both from Molecular Probes). Cells were incubated with anti-CA19-9 antibody (1:100) for 15 min followed by goat anti-mouse antibody (Alexa-647). After washing, cells were stained with 7-aminoactinomycin D (7-AAD; Molecular Probes), a marker of cell death. Cell suspensions were analyzed (minimum 3.0 104 events) using a FACScan cytometer with the CellQuest-pro software (Becton Dickinson, Mountain View, Calif.). We have evaluated apoptosis selectively in the NG^bright and CA19-9+ cells according to the scheme in FIGS. 19A-E. After counting, dead cells (7-AAD+) were excluded from further analysis, live β-cells (NG^bright) and PDC (CA19-9^+) were analyzed for mitochondrial membrane potential (TMRE), which allows discriminating between healthy (TMRE^+) and apoptotic (TMRE^−) cells. […]

[2] = tested on: PDC (CA19-9+ ductal cells) of human islet preparations; assay: Simultaneous β-cell/PDC viability by FACS after noxious stimuli: ductal cell subset; conditions: 24 h, SNAP 0.5 mM, H2O2 200 μM, IL-1β 50 U/ml + TNF-α 1,000 U/ml + IFN-γ 1,000 U/ml, vs absence of stimulus
Procedure: as §1

[3] = tested on: β-cells (NG bright) of human islets; assay: β-cell apoptosis after delivery of noxious stimuli (TMRE staining in NG bright subset, FACS); conditions: SNP 0.5 mM 18 h, H2O2 200 μM 18 h, IL-1β 50 U/ml alone or with TNF-α 1000 U/ml and IFN-γ 1000 U/ml 24 h, vs absence of stimulus
Procedure: Determination of fractional β-cell viability. For assessment of apoptosis, single cell suspensions were incubated with 1 μM Newport Green PDX acetoxymethylether (NG; Molecular Probes) and 100 ng/ml of tetramethylrhodamine ethyl ester (TMRE; Molecular Probes) for 30 min at 37° C. in PBS without Ca^2+ and Mg^2+. Newport Green allows for the definition of cell subsets according to zinc content (18). TMRE selectively binds to mitochondrial membranes, allowing for detection of apoptosis (that results in decreased staining) (19-20). After washing, cells were stained with 7-aminoactinomycin D (7-AAD; Molecular Probes), which binds to DNA when cell membrane permeability is altered after cell death. Cell suspensions were analyzed (minimum 3.0×10^4 events) using a FACScan cytometer (Becton Dickinson, Mountain View, Calif.) with the CellQuest software.
Delivery of pro-apoptotic stimuli to islet cells: Islets were treated with selected compounds to induce apoptosis. The nitric oxide (NO) donor sodium nitroprusside (Baxter Healthcare Corporation, Deerfield, Ill.) was used at 0.5 mM for 18 hours. Hydrogen peroxide (H2O2; Sigma) was used at 200 μM for 18 hours. IL-1-β (50 U/ml) alone or in combination with TNF-α (1000 U/ml) and IFN-γ (1000 U/ml) was used for 24 hours. […]

Row | Compound | apoptosis by TMRE staining in β-cell subset [1] | apoptosis by TMRE staining in ductal cell (PDC) subset [2] | percentage of apoptotic β-cells (TMRE−, NG bright) [3]
1 | CC(=O)NC(C(=O)O)C(C)(C)SN=O (racemic) [SNAP, S-Nitroso-N-acetyl-DL-penicillamine] | increased apoptosis | increased apoptosis | 
2 | IL-1β: cytokine used as pro-apoptotic stimulus on islets |  |  | increase in the percentage of apoptotic β-cells
3 | OO [H2O2, Hydrogen peroxide] | increased apoptosis | increased apoptosis | increase in the percentage of apoptotic β-cells
